The structures appear in SMILES notation.

Sequence of HPK1 (Q92918 whole entry, looked up): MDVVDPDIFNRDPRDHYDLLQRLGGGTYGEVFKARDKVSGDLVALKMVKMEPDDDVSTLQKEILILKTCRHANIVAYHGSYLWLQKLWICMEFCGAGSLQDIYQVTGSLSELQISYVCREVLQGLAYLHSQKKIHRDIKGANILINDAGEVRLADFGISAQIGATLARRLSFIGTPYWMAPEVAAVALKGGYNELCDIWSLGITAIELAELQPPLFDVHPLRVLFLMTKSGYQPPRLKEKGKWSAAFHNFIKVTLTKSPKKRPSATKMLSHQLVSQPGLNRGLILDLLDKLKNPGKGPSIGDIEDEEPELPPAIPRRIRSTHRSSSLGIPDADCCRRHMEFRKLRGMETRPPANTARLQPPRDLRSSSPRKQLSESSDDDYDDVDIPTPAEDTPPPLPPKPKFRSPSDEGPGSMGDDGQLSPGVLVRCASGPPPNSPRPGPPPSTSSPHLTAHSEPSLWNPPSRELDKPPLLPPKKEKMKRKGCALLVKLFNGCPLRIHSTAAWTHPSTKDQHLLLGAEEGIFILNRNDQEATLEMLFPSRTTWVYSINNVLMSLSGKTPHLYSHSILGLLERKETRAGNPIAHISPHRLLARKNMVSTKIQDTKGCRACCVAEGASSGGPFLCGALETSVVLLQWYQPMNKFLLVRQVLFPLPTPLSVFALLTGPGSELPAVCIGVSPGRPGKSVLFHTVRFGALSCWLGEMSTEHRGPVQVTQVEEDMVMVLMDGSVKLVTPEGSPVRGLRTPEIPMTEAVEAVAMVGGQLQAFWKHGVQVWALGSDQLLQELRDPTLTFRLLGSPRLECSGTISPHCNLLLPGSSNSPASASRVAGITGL

The test addresses HPK1 (Homo sapiens, UniProt Q92918). The test is described as follows: HPK1 Kinase Binding Assay. The following applies: active HPK1 (SignalChem M23-11G), tracer 222, LanthaScreen Eu-Anti GST antibody, one hour incubation at 25° C. (In general: TR-FRET usually uses a lanthanide donor and a delayed reading to cut background.)
Experimental: A stock solution of 1 mM test compound was prepared in DMSO. The compound plate was prepared by 3-fold and 11-point serial dilutions. 0.1 μL of the compound in DMSO was transferred from the compound plate to the white 384 well polystyrene plates. The assay buffer contained 50 mM HEPES, pH 7.5, 0.01% Tween-20, 5 mM MgCl2, 0.01% BSA, and 5 mM DTT. 5 μL of 4 nM active HPK1 (SignalChem M23-11G) prepared in the buffer was added to the plate. The enzyme concentration given was based on the given stock concentration reported by the vender. […] After one hour incubation at 25° C., the plates were read on a PHERAstar FS plate reader (BMG Labtech). Ki values were determined.
`COc1cccc(F)c1-c1nccc(C(=O)Nc2ccc3sc(C)nc3c2N(C)CC2CCN(C)C2)n1` (stereo not shown) [Example 24, 2-(2-Fluoro-6-methoxyphenyl)-N-(2-methyl-4-(methyl((1-methylpyrrolidin-3-yl)methyl)amino)benzo[d]thiazol-5-yl)pyrimidine-4-carboxamide] registered an inhibition constant Ki of less than 100 nM.

`COc1cccc(F)c1-c1nccc(C(=O)Nc2cc(C#N)c3sc(C)nc3c2N2CC[C@H](N)C2)n1` [Example 8, (S)—N-(4-(3-Aminopyrrolidin-1-yl)-7-cyano-2-methylbenzo[d]thiazol-5-yl)-2-(2-fluoro-6-methoxyphenyl)pyrimidine-4-carboxamide] registered a Ki of less than 100 nM. The figure for `CNCc1cc(C)c(-c2nccc(C(=O)Nc3ccc4sc(C)nc4c3N3CC[C@@H](N)C3)n2)c(F)c1` [Example 4, (R)—N-(4-(3-Aminopyrrolidin-1-yl)-2-methylbenzo[d]thiazol-5-yl)-2-(2-fluoro-6-methyl-4-((methylamino)methyl)phenyl)pyrimidine-4-carboxamide] is less than 100 nM; for `COc1cccc(F)c1-c1nccc(C(=O)Nc2ccc3sc(C)nc3c2N2CCC3CCNCC32)n1` (stereo not shown) [Example 28, 2-(2-Fluoro-6-methoxyphenyl)-N-(2-methyl-4-(octahydro-1H-pyrrolo[2,3-c]pyridin-1-yl)benzo[d]thiazol-5-yl)pyrimidine-4-carboxamide] it is less than 100 nM.

As for `COc1cccc(F)c1-c1nccc(C(=O)Nc2ccc3sc(C)nc3c2N2C[C@H]3C[C@@H]2CO3)n1` [Example 22, N-(4-((1R,4R)-2-Oxa-5-azabicyclo[2.2.1]heptan-5-yl)-2-methylbenzo[d]thiazol-5-yl)-2-(2-fluoro-6-methoxyphenyl)pyrimidine-4-carboxamide], the Ki was less than 100 nM. For `COc1cccc(C(N)=O)c1-c1nccc(C(=O)Nc2ccc3sc(C)nc3c2N2C[C@H](N)C[C@H]2CO)n1` [Example 14, N-(4-((2S,4R)-4-Amino-2-(hydroxymethyl)pyrrolidin-1-yl)-2-methylbenzo[d]thiazol-5-yl)-2-(2-carbamoyl-6-methoxyphenyl)pyrimidine-4-carboxamide], the Ki is 100 to 500 nM.

As for `COc1cccc(F)c1-c1nccc(C(=O)Nc2ccc3sc(C)nc3c2N2CCC(c3ccccn3)C2)n1` (stereo not shown) [Example 29, 2-(2-Fluoro-6-methoxyphenyl)-N-(2-methyl-4-(3-(pyridin-2-yl)pyrrolidin-1-yl)benzo[d]thiazol-5-yl)pyrimidine-4-carboxamide], the inhibition constant Ki is less than 100 nM.

In turn, `COc1cccc(F)c1-c1nccc(C(=O)Nc2ccc3sc(C)nc3c2N2C[C@H]3C[C@@H]2CN3C(=O)N2CCOCC2)n1` [Example 25, 2-(2-Fluoro-6-methoxyphenyl)-N-(2-methyl-4((1R,4R)-5-(morpholine-4-carbonyl)-2,5-diazabicyclo[2.2.1]heptan-2-yl)benzo[d]thiazol-5-yl)pyrimidine-4-carboxamide] returned a Ki of less than 100 nM. Consider `COc1cccc(F)c1-c1nccc(C(=O)Nc2ccc3sc(C)nc3c2N2C[C@H](NC(C)C)C[C@H]2CO)n1` [Example 18, 2-(2-Fluoro-6-methoxyphenyl)-N-(4((2S,4R)-2-(hydroxymethyl)-4-(isopropylamino)pyrrolidin-1-yl)-2-methylbenzo[d]thiazol-5-yl)pyrimidine-4-carboxamide], for which the inhibition constant Ki was less than 100 nM. Molecule `[2H]C([2H])([2H])Oc1ccc(C#N)c(F)c1-c1nccc(C(=O)Nc2ccc3sc(C)nc3c2N2C[C@H](N)C[C@H]2CO)n1` [Example 17, N-(4-((2S,4R)-4-Amino-2-(hydroxymethyl)pyrrolidin-1-yl)-2-methylbenzo[d]thiazol-5-yl)-2-(3-cyano-2-fluoro-6-(methoxy-d3)phenyl)pyrimidine-4-carboxamide] came in with a Ki of less than 100 nM.

The molecule `COc1cccc(F)c1-c1nccc(C(=O)Nc2ccc3sc(C(C)C)nc3c2N2C[C@@H](N)C[C@H]2CO)n1` [Example 13, N-(4-((2S,4S)-4-Amino-2-(hydroxymethyl)pyrrolidin-1-yl)-2-isopropylbenzo[d]thiazol-5-yl)-2-(2-fluoro-6-methoxyphenyl)pyrimidine-4-carboxamide] returned a Ki of less than 100 nM. Molecule `COCCc1nc2c(N3CCC[C@H]3CN)c(NC(=O)c3ccnc(-c4c(F)cccc4OC)n3)ccc2s1` [Example 10, (S)—N-(4-(2-(Aminomethyl)pyrrolidin-1-yl)-2-(2-methoxyethyl)benzo[d]thiazol-5-yl)-2-(2-fluoro-6-methoxyphenyl)pyrimidine-4-carboxamide] showed an inhibition constant (Ki) of less than 100 nM. In turn, `Cc1nc2c(N3CC[C@@H](N)C3)c(NC(=O)c3ccnc(-c4c(C)cccc4F)n3)ccc2s1` [Example 2, (R)—N-(4-(3-Aminopyrrolidin-1-yl)-2-methylbenzo[d]thiazol-5-yl)-2-(2-fluoro-6-methylphenyl)pyrimidine-4-carboxamide] yielded a Ki of less than 100 nM. Molecule `COc1cccc(F)c1-c1nccc(C(=O)Nc2ccc3sc(C)nc3c2N2C[C@@H](N)C[C@H]2CO)n1` [Example 23, N-(4-((2S,4S)-4-amino-2-(hydroxymethyl)pyrrolidin-1-yl)-2-methylbenzo[d]thiazol-5-yl)-2-(2-fluoro-6-methoxyphenyl)pyrimidine-4-carboxamide] registered a Ki of less than 100 nM.

Consider `COc1cccc(F)c1-c1nccc(C(=O)Nc2ccc3sc(C)nc3c2N2C[C@H](NC3CCOCC3)C[C@H]2CO)n1` [Example 19, 2-(2-Fluoro-6-methoxyphenyl)-N-(4((2S,4R)-2-(hydroxymethyl)-4-(tetrahydro-2H-pyran-4-ylamino)pyrrolidin-1-yl)-2-methylbenzo[d]thiazol-5-yl)pyrimidine-4-carboxamide], for which the Ki was less than 100 nM. In turn, `COc1cccc(F)c1-c1nccc(C(=O)Nc2ccc3sc(C)nc3c2N2C[C@H](NS(C)(=O)=O)C[C@H]2CO)n1` [Example 21, 2-(2-Fluoro-6-methoxyphenyl)-N-(4((2S,4R)-2-(hydroxymethyl)-4-(methylsulfonamido)pyrrolidin-1-yl)-2-methylbenzo[d]thiazol-5-yl)pyrimidine-4-carboxamide] returned a Ki of less than 100 nM. In the case of `COc1ccc(F)c(F)c1-c1nccc(C(=O)Nc2ccc3sc(C)nc3c2N2C[C@H](N)C[C@H]2CO)n1` [Example 16, N-(4-((2S,4R)-4-Amino-2-(hydroxymethyl)pyrrolidin-1-yl)-2-methylbenzo[d]thiazol-5-yl)-2-(2,3-difluoro-6-methoxyphenyl)pyrimidine-4-carboxamide] it was less than 100 nM; in that of `COc1cccc(F)c1-c1nccc(C(=O)Nc2ccc3sc(C)nc3c2N(C)[C@@H]2CCCNC2)n1` [Example 27], less than 100 nM. In the case of `COc1cccc(F)c1-c1nccc(C(=O)Nc2cc(Cl)c3sc(C)nc3c2N2CC[C@H](N)C2)n1` [Example 5, (S)—N-(4-(3-Aminopyrrolidin-1-yl)-7-chloro-2-methylbenzo[d]thiazol-5-yl)-2-(2-fluoro-6-methoxyphenyl)pyrimidine-4-carboxamide] it was less than 100 nM. In turn, `COc1cccc(F)c1-c1nccc(C(=O)Nc2ccc3sc(C)nc3c2N2C[C@H](NC(C)=O)C[C@H]2CO)n1` [Example 20, N-(4-((2S,4R)-4-Acetamido-2-(hydroxymethyl)pyrrolidin-1-yl)-2-methylbenzo[d]thiazol-5-yl)-2-(2-fluoro-6-methoxyphenyl)pyrimidine-4-carboxamide] came in with an inhibitory constant (Ki) of less than 100 nM. `COc1cccc(F)c1-c1nccc(C(=O)Nc2cc(Br)c3sc(C)nc3c2N2CC[C@H](N)C2)n1` [Example 6, (S)—N-(4-(3-Aminopyrrolidin-1-yl)-7-bromo-2-methylbenzo[d]thiazol-5-yl)-2-(2-fluoro-6-methoxyphenyl)pyrimidine-4-carboxamide] returned an inhibitory constant (Ki) of less than 100 nM. In the case of `Cc1nc2c(N3CC[C@@H](N)C3)c(NC(=O)c3ccnc(-c4c(F)cccc4F)n3)ccc2s1` [Example 1, (R)—N-(4-(3-Aminopyrrolidin-1-yl)-2-methylbenzo[d]thiazol-5-yl)-2-(2,6-difluorophenyl)pyrimidine-4-carboxamide] it was less than 100 nM.

Molecule `COc1cccc(F)c1-c1nccc(C(=O)Nc2ccc3sc(C)nc3c2N2CC(F)(F)C[C@H]2CO)n1` [Example 30, (S)—N-(4-(4,4-Difluoro-2-(hydroxymethyl)pyrrolidin-1-yl)-2-methylbenzo[d]thiazol-5-yl)-2-(2-fluoro-6-methoxyphenyl)pyrimidine-4-carboxamide] displayed a Ki of less than 100 nM.

Regarding `COc1cccc(F)c1-c1nccc(C(=O)Nc2ccc3sc(C)nc3c2N2C[C@H](N)C[C@H]2CO)n1` [Example 11, N-(4-((2S,4R)-4-Amino-2-(hydroxymethyl)pyrrolidin-1-yl)-2-methylbenzo[d]thiazol-5-yl)-2-(2-fluoro-6-methoxyphenyl)pyrimidine-4-carboxamide], the Ki was less than 100 nM. `COCc1nc2c(N3CCC[C@H]3CN)c(NC(=O)c3ccnc(-c4c(F)cccc4OC)n3)ccc2s1` [Example 9, (S)—N-(4-(2-(Aminomethyl)pyrrolidin-1-yl)-2-(methoxymethyl)benzo[d]thiazol-5-yl)-2-(2-fluoro-6-methoxyphenyl)pyrimidine-4-carboxamide] registered a Ki of less than 100 nM.

For the molecule `Cc1nc2c(N3C[C@@H]4CC[C@H]3CN4)c(NC(=O)c3ccnc(-c4c(F)cccc4F)n3)ccc2s1` [Example 31, N-(4-((1S,4S)-2,5-Diazabicyclo[2.2.2]octan-2-yl)-2-methylbenzo[d]thiazol-5-yl)-2-(2,6-difluorophenyl)pyrimidine-4-carboxamide], the Ki is less than 100 nM. `COc1cccc(F)c1-c1nccc(C(=O)Nc2ccc3sc(CN(C)C)nc3c2N2C[C@H](N)C[C@H]2CO)n1` [Example 32, N-(4-((2S,4R)-4-amino-2-(hydroxymethyl)pyrrolidin-1-yl)-2-((dimethylamino)methyl)benzo[d]thiazol-5-yl)-2-(2-fluoro-6-methoxyphenyl)pyrimidine-4-carboxamide] had a Ki of less than 100 nM. For `COc1ccc(-c2cnn(C)c2)c(F)c1-c1nccc(C(=O)Nc2ccc3sc(C)nc3c2N2C[C@H](N)C[C@H]2CO)n1` [Example 15, N-(4-((2S,4R)-4-Amino-2-(hydroxymethyl)pyrrolidin-1-yl)-2-methylbenzo[d]thiazol-5-yl)-2-(2-fluoro-6-methoxy-3-(1-methyl-1H-pyrazol-4-yl)phenyl)pyrimidine-4-carboxamide], the inhibition constant (Ki) is less than 100 nM.

Broadly, the Ki is the equilibrium dissociation constant of an inhibitor or competing ligand from its target.

The values are drawn from patent US10899755B2, “Benzothiazole compounds and uses thereof” (Incyte Corporation, priority 2018, dated 2021).
